Measured values taken from article PMC4715937 (Cancer research, 2016).

Experiments:
Format in all cases: cell-based, human
[1] = test system: Heme oxygenase-1 (HMOX1); experiment: HMOX1 quantitative PCR and ELISA in DLBCL cells; settings: Ly19 cells, inhibitor at 4μM, 24 hours
[2] = test system: Ly19 cells; experiment: MTS assay of Ly19 cells with pro-oxidant and NF-κB inhibitor; settings: 3 days; PS-1145 4 μM, pyocyanin 350 μM, single agents
[3] = test system: TMD8 cells; experiment: MTS cell proliferation assay, TMD8 cells; settings: antibody alone, 48 hours

Compound | HMOX1 induction in the presence of pyocyanin [1] | Ly19 growth [2] | cell growth of TMD8 [3]
O=C(Nc1cc(Cl)cc2c1[nH]c1cnccc12)c1cccnc1 [PS-1145] | reduced HMOX1 induction | no effect on Ly19 growth | –
Cn1c2cccc(=O)c-2nc2ccccc21 [pyocyanin] | – | strongly inhibited lymphoma cell growth | –
ADALIMUMAB | – | – | inhibited cell growth
